In ChEMBL document CHEMBL5329155, “Synthesis and pharmacological evaluation of 1,3-diaryl substituted pyrazole based (thio)urea derivatives as potent antimicrobial agents against multi-drug resistant Staphylococcus aureus and Mycobacterium tuberculosis” (RSC Med Chem, 2023):
≈ marks a conversion by molar mass, not a printed value.

How the values were obtained:
Staphylococcus aureus [1] = experiment: Antibacterial activity against Staphylococcus aureus ATCC 29213 assessed as inhibition of bacterial growth measured for 18 to 24 hrs by broth dilution method; assay type: functional; details: time 18-24 hrs
[2] = tested on: Mycobacterium tuberculosis; experiment: Antimycobacterial activity against Mycobacterium tuberculosis H37Rv ATCC 27294 assessed as inhibition of bacterial growth incubated for 18 to 24 hrs by broth dilution method; assay type: functional
[3] = Cytotoxicity against African green monkey Vero cells assessed as reduction in cell viability incubated for 72 hrs by MTT assay; assay type: toxicity, cell-based; details: chlorocebus sabaeus
[4] = Selectivity index, ratio of CC50 for cytotoxicity against African green monkey Vero cells assessed as reduction in cell viability to MIC for antibacterial activity against Mycobacterium tuberculosis H37Rv ATCC 27294 assessed as inhibition of bacterial growth; assay type: toxicity, cell-based; details: read-out: Selectivity Index
[5] = tested on: Mycobacterium tuberculosis; experiment: Antimycobacterial activity against isoniazid-resisitant Mycobacterium tuberculosis ATCC 35822 assessed as inhibition of bacterial growth incubated for 18 to 24 hrs by broth dilution method; assay type: functional; details: time 18-24 hrs
[6] = tested on: Mycobacterium tuberculosis; experiment: Antimycobacterial activity against ethambutol-resisitant Mycobacterium tuberculosis ATCC 35837 assessed as inhibition of bacterial growth incubated for 18 to 24 hrs by broth dilution method; assay type: functional; details: time 18-24 hrs
[7] = tested on: Mycobacterium tuberculosis; experiment: Antimycobacterial activity against streptomycin-resisitant Mycobacterium tuberculosis ATCC 35820 assessed as inhibition of bacterial growth incubated for 18 to 24 hrs by broth dilution method; assay type: functional; details: time 18-24 hrs
[8] = tested on: Mycobacterium tuberculosis; experiment: Antimycobacterial activity against rifampicin-resisitant Mycobacterium tuberculosis ATCC 35838 assessed as inhibition of bacterial growth incubated for 18 to 24 hrs by broth dilution method; assay type: functional; details: time 18-24 hrs
[9] = Metabolic stability in human liver microsome assessed as elimination rate constant at 1 uM preincubated for 5 mins followed by NADPH addition and measured after 60 mins by LC-MS/MS analysis; assay type: ADME; details: liver microsomes, time 65 min
[10] = Metabolic stability in human liver microsome assessed as half life at 1 uM preincubated for 5 mins followed by NADPH addition and measured after 60 mins by LC-MS/MS analysis; assay type: ADME; details: liver microsomes, time 65 min
[11] = Metabolic stability in human liver microsome assessed as intrinsic clearance at 1 uM preincubated for 5 mins followed by NADPH addition and measured after 60 mins by LC-MS/MS analysis; assay type: ADME; details: liver microsomes, time 65 min, read-out: CLH
[12] = Aqueous solubility of compound in phosphate buffer at pH 7.4 incubated for 16 hrs by HPLC analysis; assay type: physicochemical
DNA gyrase = DNA gyrase (Escherichia coli, UniProt P0AES4+P0AES6); experiment: Inhibition of Escherichia coli DNA gyrase; assay type: protein-complex assay
[13] = tested on: Mycobacterium tuberculosis; experiment: Antimycobacterial activity against Mycobacterium tuberculosis assessed as reduction in bacterial growth; assay type: functional
Staphylococcus aureus [14] = experiment: Antibacterial activity against methicillin-susceptible Staphylococcus aureus assessed as reduction in bacterial growth incubated for 18 to 24 hrs by broth dilution method; assay type: functional; details: time 18-24 hrs
Staphylococcus aureus [15] = experiment: Antibacterial activity against methicillin/ceftriaxone/meropenem/gentamycin/linezolid resistant Staphylococcus aureus NRS 100 assessed as reduction in bacterial growth incubated for 18 to 24 hrs by broth dilution method; assay type: functional; details: time 18-24 hrs
Staphylococcus aureus [16] = experiment: Antibacterial activity against methicillin/ceftriaxone/meropenem/gentamycin/linezolid resistant Staphylococcus aureus NRS 119 assessed as reduction in bacterial growth incubated for 18 to 24 hrs by broth dilution method; assay type: functional; details: time 18-24 hrs
Staphylococcus aureus [17] = experiment: Antibacterial activity against methicillin/ceftriaxone/meropenem resistant Staphylococcus aureus NRS 129 assessed as reduction in bacterial growth incubated for 18 to 24 hrs by broth dilution method; assay type: functional; details: time 18-24 hrs
Staphylococcus aureus [18] = experiment: Antibacterial activity against methicillin/ceftriaxone/meropenem resistant Staphylococcus aureus NRS 186 assessed as reduction in bacterial growth incubated for 18 to 24 hrs by broth dilution method; assay type: functional; details: time 18-24 hrs
Staphylococcus aureus [19] = experiment: Antibacterial activity against methicillin/ceftriaxone/meropenem resistant Staphylococcus aureus NRS 191 assessed as reduction in bacterial growth incubated for 18 to 24 hrs by broth dilution method; assay type: functional; details: time 18-24 hrs
Staphylococcus aureus [20] = experiment: Antibacterial activity against methicillin/ceftriaxone/meropenem resistant Staphylococcus aureus NRS 192 assessed as reduction in bacterial growth incubated for 18 to 24 hrs by broth dilution method; assay type: functional; details: time 18-24 hrs
Staphylococcus aureus [21] = experiment: Antibacterial activity against methicillin/ceftriaxone/meropenem resistant Staphylococcus aureus NRS 193 assessed as reduction in bacterial growth incubated for 18 to 24 hrs by broth dilution method; assay type: functional; details: time 18-24 hrs
Staphylococcus aureus [22] = experiment: Antibacterial activity against methicillin/ceftriaxone resistant Staphylococcus aureus NRS 194 assessed as reduction in bacterial growth incubated for 18 to 24 hrs by broth dilution method; assay type: functional; details: time 18-24 hrs
Staphylococcus aureus [23] = experiment: Antibacterial activity against methicillin/ceftriaxone/meropenem resistant Staphylococcus aureus NRS 198 assessed as reduction in bacterial growth incubated for 18 to 24 hrs by broth dilution method; assay type: functional; details: time 18-24 hrs
Staphylococcus aureus [24] = experiment: Antibacterial activity against methicillin/ceftriaxone/meropenem/gentamycin/vancomycin/teicoplanin resistant Staphylococcus aureus VRS 1 assessed as reduction in bacterial growth incubated for 18 to 24 hrs by broth dilution method; assay type: functional; details: time 18-24 hrs
Staphylococcus aureus [25] = experiment: Antibacterial activity against methicillin/ceftriaxone/meropenem/vancomycin/teicoplanin resistant Staphylococcus aureus VRS 4 assessed as reduction in bacterial growth incubated for 18 to 24 hrs by broth dilution method; assay type: functional; details: time 18-24 hrs
Staphylococcus aureus [26] = experiment: Antibacterial activity against methicillin/ceftriaxone/meropenem/vancomycin/teicoplanin resistant Staphylococcus aureus VRS 12 assessed as reduction in bacterial growth incubated for 18 to 24 hrs by broth dilution method; assay type: functional; details: time 18-24 hrs
[27] = tested on: Mycobacterium tuberculosis; experiment: Antimycobacterial activity against Mycobacterium tuberculosis H37Rv assessed as reduction in bacterial growth; assay type: functional

COc1ccc(-c2ccn(-c3ccc(NC(=O)Nc4ccc(F)cc4F)cc3)n2)cc1OC
MIC (Staphylococcus aureus [1]): > 64 µg/mL | MIC [2]: 1 µg/mL (≈ 2.22 µM) | CC50 at 72 h [3]: > 200 µg/mL | selectivity ratio [4]: > 200 | MIC [5]: > 64 µg/mL | MIC [6]: 64 µg/mL (≈ 142 µM) | MIC [7]: > 64 µg/mL | MIC [8]: 4 µg/mL (≈ 8.88 µM) | k el at 1 h, 1 µM [9]: 8.33e-05 s⁻¹ | half-life at 1 µM [10]: 2.14 h | microsomal CLint at 1 µM [11]: 10.4 µL/min/mg | solubility at 16 h [12]: 6 µg/mL (≈ 13.3 µM)

COc1ccc(Nc2n[nH]c(/N=C/c3ccc(N4CCCCC4)cc3)c2C(N)=O)cc1
IC50 (DNA gyrase): 7.69 mM

Cc1c(C(=O)NN2CCCCC2)nn(-c2ccc(Cl)cc2Cl)c1-c1ccc(Cl)cc1 [RIMONABANT]
MIC [13]: 25 µg/mL (≈ 53.9 µM)

COc1ccc(-c2ccn(-c3ccc(NC(=O)NCc4ccccc4)cc3)n2)cc1OC
MIC (Staphylococcus aureus [1]): > 64 µg/mL | MIC [2]: 1 µg/mL (≈ 2.33 µM) | CC50 at 72 h [3]: 20 µg/mL (≈ 46.7 µM) | selectivity ratio [4]: 20

C[C@H]1COc2c(N3CCN(C)CC3)c(F)cc3c(=O)c(C(=O)O)cn1c23 [LEVOFLOXACIN ANHYDROUS]
MIC (Staphylococcus aureus [1]): 0.25 µg/mL (≈ 0.692 µM) | MIC [2]: 0.25 µg/mL (≈ 0.692 µM) | MIC (Staphylococcus aureus [14]): 0.25 µg/mL (≈ 0.692 µM) | MIC (Staphylococcus aureus [15]): 0.25 µg/mL (≈ 0.692 µM) | MIC (Staphylococcus aureus [16]): 16 µg/mL (≈ 44.3 µM) | MIC (Staphylococcus aureus [17]): 0.25 µg/mL (≈ 0.692 µM) | MIC (Staphylococcus aureus [18]): 4 µg/mL (≈ 11.1 µM) | MIC (Staphylococcus aureus [19]): 16 µg/mL (≈ 44.3 µM) | MIC (Staphylococcus aureus [20]): 8 µg/mL (≈ 22.1 µM) | MIC (Staphylococcus aureus [21]): 32 µg/mL (≈ 88.6 µM) | MIC (Staphylococcus aureus [22]): 0.25 µg/mL (≈ 0.692 µM) | MIC (Staphylococcus aureus [23]): 32 µg/mL (≈ 88.6 µM) | MIC (Staphylococcus aureus [24]): 32 µg/mL (≈ 88.6 µM) | MIC (Staphylococcus aureus [25]): 32 µg/mL (≈ 88.6 µM) | MIC (Staphylococcus aureus [26]): 32 µg/mL (≈ 88.6 µM)

O=C(Nc1ccc(-n2ccc(-c3cc4ccccc4o3)n2)cc1)c1cc([N+](=O)[O-])cc([N+](=O)[O-])c1
MIC [27]: 0.03 µg/mL (≈ 0.0639 µM)

COc1ccc(-c2ccn(-c3ccc(NC(=S)Nc4cc(C)cc(C)c4)cc3)n2)cc1OC
MIC (Staphylococcus aureus [1]): > 64 µg/mL | MIC [2]: 8 µg/mL (≈ 17.4 µM)

COc1ccc(NC(=S)Nc2ccc(-n3ccc(-c4ccc(OC)c(OC)c4)n3)cc2)cc1
MIC (Staphylococcus aureus [1]): > 64 µg/mL | MIC [2]: 8 µg/mL (≈ 17.4 µM)

C[C@@H](O)[C@H]1C(=O)N2C(C(=O)O)=C(S[C@@H]3CN[C@H](C(=O)N(C)C)C3)[C@H](C)[C@H]12 [MEROPENEM]
MIC (Staphylococcus aureus [14]): 0.125 µg/mL (≈ 0.326 µM) | MIC (Staphylococcus aureus [15]): 64 µg/mL (≈ 167 µM) | MIC (Staphylococcus aureus [16]): 64 µg/mL (≈ 167 µM) | MIC (Staphylococcus aureus [17]): 8 µg/mL (≈ 20.9 µM) | MIC (Staphylococcus aureus [18]): 8 µg/mL (≈ 20.9 µM) | MIC (Staphylococcus aureus [19]): 64 µg/mL (≈ 167 µM) | MIC (Staphylococcus aureus [20]): 16 µg/mL (≈ 41.7 µM) | MIC (Staphylococcus aureus [21]): 64 µg/mL (≈ 167 µM) | MIC (Staphylococcus aureus [22]): 2 µg/mL (≈ 5.22 µM) | MIC (Staphylococcus aureus [23]): 64 µg/mL (≈ 167 µM) | MIC (Staphylococcus aureus [24]): 64 µg/mL (≈ 167 µM) | MIC (Staphylococcus aureus [25]): 64 µg/mL (≈ 167 µM) | MIC (Staphylococcus aureus [26]): 2 µg/mL (≈ 5.22 µM)

NNC(=O)c1ccncc1 [ISONIAZID]
MIC [2]: 0.03 µg/mL (≈ 0.219 µM) | MIC [5]: > 64 µg/mL | MIC [6]: 0.03 µg/mL (≈ 0.219 µM) | MIC [7]: 0.03 µg/mL (≈ 0.219 µM) | MIC [8]: 0.03 µg/mL (≈ 0.219 µM)

COc1ccc(-c2ccn(-c3ccc(NC(=O)Nc4ccc(Cl)c(C(F)(F)F)c4)cc3)n2)cc1OC
MIC (Staphylococcus aureus [1]): 2 µg/mL (≈ 3.87 µM) | MIC [2]: 4 µg/mL (≈ 7.74 µM)

Cc1ccc(-c2ccn(-c3ccc(NC(=O)Nc4ccc(F)cc4F)cc3)n2)cc1
MIC (Staphylococcus aureus [1]): > 64 µg/mL | MIC [2]: > 64 µg/mL

CC[C@@H](CO)NCCN[C@@H](CC)CO [ETHAMBUTOL]
MIC [2]: 2 µg/mL (≈ 9.79 µM) | MIC [5]: 4 µg/mL (≈ 19.6 µM) | MIC [6]: 32 µg/mL (≈ 157 µM) | MIC [7]: 2 µg/mL (≈ 9.79 µM) | MIC [8]: 2 µg/mL (≈ 9.79 µM)

O=C(Nc1ccc(-n2ccc(-c3cccnc3)n2)cc1)Nc1ccc(Cl)c(Cl)c1
MIC (Staphylococcus aureus [1]): > 64 µg/mL | MIC [2]: 16 µg/mL (≈ 37.7 µM)

CO[C@H]1/C=C/O[C@@]2(C)Oc3c(C)c(O)c4c(O)c(c(/C=N/N5CCN(C)CC5)c(O)c4c3C2=O)NC(=O)/C(C)=C\C=C\[C@H](C)[C@H](O)[C@@H](C)[C@@H](O)[C@@H](C)[C@H](OC(C)=O)[C@@H]1C [RIFAMPIN]
MIC [2]: 0.06 µg/mL (≈ 0.0729 µM) | MIC [5]: 0.03 µg/mL (≈ 0.0365 µM) | MIC [6]: 0.03 µg/mL (≈ 0.0365 µM) | MIC [7]: 0.03 µg/mL (≈ 0.0365 µM) | MIC [8]: 64 µg/mL (≈ 77.8 µM)

COC(=O)c1cc(-c2cccc(NC(=O)Nc3ccc(Cl)c(Cl)c3)c2)on1
MIC [27]: 0.25 µg/mL (≈ 0.615 µM)

O=C(Nc1ccc(-n2ccc(-c3ccc4ccccc4c3)n2)cc1)Nc1ccc(Cl)c(Cl)c1
MIC (Staphylococcus aureus [1]): > 64 µg/mL | MIC [2]: 64 µg/mL (≈ 135 µM)

CN[C@H](CC(C)C)C(=O)N[C@H]1C(=O)N[C@@H](CC(N)=O)C(=O)N[C@H]2C(=O)N[C@H]3C(=O)N[C@H](C(=O)N[C@H](C(=O)O)c4cc(O)cc(O)c4-c4cc3ccc4O)[C@H](O)c3ccc(c(Cl)c3)Oc3cc2cc(c3O[C@@H]2O[C@H](CO)[C@@H](O)[C@H](O)[C@H]2O[C@H]2C[C@](C)(N)[C@H](O)[C@H](C)O2)Oc2ccc(cc2Cl)[C@H]1O [VANCOMYCIN]
MIC (Staphylococcus aureus [24]): > 64 µg/mL | MIC (Staphylococcus aureus [25]): > 64 µg/mL | MIC (Staphylococcus aureus [26]): > 64 µg/mL

COc1ccc(-c2ccn(-c3ccc(NC(=S)Nc4cccc(Cl)c4)cc3)n2)cc1OC
MIC (Staphylococcus aureus [1]): > 64 µg/mL | MIC [2]: 16 µg/mL (≈ 34.4 µM)

COc1ccc(-c2ccn(-c3ccc(NC(=S)Nc4ccc(F)cc4F)cc3)n2)cc1OC
MIC (Staphylococcus aureus [1]): > 64 µg/mL | MIC [2]: 16 µg/mL (≈ 34.3 µM)

COc1ccc(-c2ccn(-c3ccc(NC(=O)NS(=O)(=O)c4ccccc4)cc3)n2)cc1OC
MIC (Staphylococcus aureus [1]): > 64 µg/mL | MIC [2]: 16 µg/mL (≈ 33.4 µM)
